From ChEMBL document CHEMBL1921725, “Synthesis and SAR development of novel P2X7 receptor antagonists for the treatment of pain: part 2” (Bioorg Med Chem Lett, 2011)
Calls of active or inactive are those of the source. No cut-off for these calls is given here.

Assays:
P2X purinoceptor 7 [1] = biological target: T1, P2X purinoceptor 7 (Homo sapiens, UniProt Q99572); experiment: Antagonist activity at P2X7 receptor in LPS-stimulated human whole blood assessed as inhibition of ATP-induced IL1-beta production treated 30 mins before LPS challenge measured after 3 hrs by ELISA; format: functional, tissue-based
T1 sequence (Q99572 whole entry): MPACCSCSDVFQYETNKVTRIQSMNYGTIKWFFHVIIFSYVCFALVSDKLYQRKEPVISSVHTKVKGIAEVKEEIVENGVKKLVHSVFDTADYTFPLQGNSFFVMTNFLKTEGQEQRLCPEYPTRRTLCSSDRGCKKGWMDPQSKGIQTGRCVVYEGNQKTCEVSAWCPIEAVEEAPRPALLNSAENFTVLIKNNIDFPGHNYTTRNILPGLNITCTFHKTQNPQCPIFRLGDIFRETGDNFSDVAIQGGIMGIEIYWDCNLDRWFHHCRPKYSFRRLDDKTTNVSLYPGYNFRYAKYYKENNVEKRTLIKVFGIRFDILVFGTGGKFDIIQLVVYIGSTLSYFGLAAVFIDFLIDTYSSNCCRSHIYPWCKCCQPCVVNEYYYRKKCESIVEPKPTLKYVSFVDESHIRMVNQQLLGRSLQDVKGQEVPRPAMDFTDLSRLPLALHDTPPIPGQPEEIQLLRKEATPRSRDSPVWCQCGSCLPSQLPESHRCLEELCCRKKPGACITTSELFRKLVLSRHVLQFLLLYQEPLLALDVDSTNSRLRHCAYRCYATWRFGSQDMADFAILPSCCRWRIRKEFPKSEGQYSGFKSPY

[2] = AUC in rapid rat model at 10 mg/kg, po; format: ADME, organism-based; parameters: dose 10 mg/kg, route oral; conditions: in vivo
[3] = Plasma concentration in rapid rat model plasma at 10 mg/kg, po after 6 hrs; format: ADME, organism-based; parameters: dose 10 mg/kg, route oral
P2X purinoceptor 7 [4] = biological target: T2, P2X purinoceptor 7 (Rattus norvegicus, UniProt Q64663); experiment: Antagonist activity at P2X7 receptor in rat whole blood; format: functional, tissue-based
T2 sequence (Q64663 whole entry): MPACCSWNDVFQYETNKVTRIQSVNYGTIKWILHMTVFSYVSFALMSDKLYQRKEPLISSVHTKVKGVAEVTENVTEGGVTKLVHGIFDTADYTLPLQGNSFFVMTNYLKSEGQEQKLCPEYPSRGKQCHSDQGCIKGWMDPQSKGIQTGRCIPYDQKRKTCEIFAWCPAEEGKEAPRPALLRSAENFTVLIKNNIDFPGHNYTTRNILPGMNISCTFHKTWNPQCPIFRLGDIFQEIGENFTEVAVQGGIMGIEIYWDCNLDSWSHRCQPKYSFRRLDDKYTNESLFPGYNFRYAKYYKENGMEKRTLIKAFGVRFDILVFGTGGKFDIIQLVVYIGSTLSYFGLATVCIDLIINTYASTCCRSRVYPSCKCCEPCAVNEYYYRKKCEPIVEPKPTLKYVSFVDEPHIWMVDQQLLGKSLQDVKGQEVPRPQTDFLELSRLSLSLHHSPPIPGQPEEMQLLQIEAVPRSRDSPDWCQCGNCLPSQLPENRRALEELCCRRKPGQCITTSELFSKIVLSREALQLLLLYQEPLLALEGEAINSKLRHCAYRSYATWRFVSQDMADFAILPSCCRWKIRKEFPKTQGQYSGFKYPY

Rattus norvegicus [5] = experiment: Analgesic activity in rat streptozocin-induced diabetic neuropathy model at 10 mg/kg, po after 4 hrs relative to gabapentin; format: functional, organism-based; parameters: dose 10 mg/kg
Rattus norvegicus [6] = experiment: Analgesic activity in rat chronic constriction injury neuroinflammatory pain model at 60 mg/kg, po after 4 hrs relative to gabapentin; format: functional, organism-based; parameters: dose 60 mg/kg
Rattus norvegicus [7] = experiment: Antihyperalgesic activity in rat mono-iodacetate-induced hyperalgesia model at 50 mg/kg, po after 4 hrs relative to naproxen; format: functional, organism-based; parameters: dose 50 mg/kg
[8] = Inhibition of sodium channel site 2 at 10 uM
[9] = Inhibition of L-type calcium channel diltiazem binding site at 10 uM
[10] = Inhibition of chloride channel at 10 uM
[11] = biological target: Sodium-dependent noradrenaline transporter (Homo sapiens) (UniProt P23975); experiment: Inhibition of norepinephrine transporter at 10 uM
Chain of Sodium-dependent noradrenaline transporter (Homo sapiens) (P23975 whole entry): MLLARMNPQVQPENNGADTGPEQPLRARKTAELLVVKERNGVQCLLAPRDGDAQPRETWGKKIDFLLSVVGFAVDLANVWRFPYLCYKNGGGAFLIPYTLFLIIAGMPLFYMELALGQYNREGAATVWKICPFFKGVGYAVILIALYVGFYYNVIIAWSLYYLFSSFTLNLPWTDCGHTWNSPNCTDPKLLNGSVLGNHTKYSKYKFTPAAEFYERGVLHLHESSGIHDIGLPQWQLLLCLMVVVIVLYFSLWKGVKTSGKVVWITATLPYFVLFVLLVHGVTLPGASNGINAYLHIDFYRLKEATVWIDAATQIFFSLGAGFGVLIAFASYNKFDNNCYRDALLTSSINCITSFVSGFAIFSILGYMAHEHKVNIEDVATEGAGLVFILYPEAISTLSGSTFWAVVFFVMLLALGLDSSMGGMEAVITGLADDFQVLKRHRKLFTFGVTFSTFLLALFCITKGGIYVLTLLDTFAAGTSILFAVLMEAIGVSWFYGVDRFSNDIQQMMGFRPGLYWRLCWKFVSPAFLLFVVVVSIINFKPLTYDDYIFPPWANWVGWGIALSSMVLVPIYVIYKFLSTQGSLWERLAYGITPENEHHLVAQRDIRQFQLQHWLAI

[12] = biological target: T3, P2X purinoceptor 4 (Homo sapiens) (UniProt Q99571); experiment: Inhibition of P2X4 receptor at 10 uM
T3 sequence (whole entry): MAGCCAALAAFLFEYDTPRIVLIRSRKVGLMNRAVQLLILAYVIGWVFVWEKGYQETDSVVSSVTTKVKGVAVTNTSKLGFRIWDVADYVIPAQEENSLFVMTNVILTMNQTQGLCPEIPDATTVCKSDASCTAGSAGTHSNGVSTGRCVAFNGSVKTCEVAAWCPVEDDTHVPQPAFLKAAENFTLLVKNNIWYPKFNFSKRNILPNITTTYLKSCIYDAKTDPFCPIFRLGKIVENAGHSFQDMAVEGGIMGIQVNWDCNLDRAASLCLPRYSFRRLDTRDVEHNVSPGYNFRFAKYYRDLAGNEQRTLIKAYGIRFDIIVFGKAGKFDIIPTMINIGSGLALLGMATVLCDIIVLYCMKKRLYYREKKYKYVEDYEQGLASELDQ

Rattus norvegicus [13] = experiment: Analgesic activity in rat chronic constriction injury neuroinflammatory pain model at 1 to 3 mg/kg, po after 4 hrs; format: functional, organism-based
Rattus norvegicus [14] = experiment: Antihyperalgesic activity in rat mono-iodacetate-induced hyperalgesia model at 1 to 3 mg/kg, po after 4 hrs; format: functional, organism-based
Rattus norvegicus [15] = experiment: Analgesic activity in rat spinal nerve ligation neuropathic pain model at 10 to 30 mg/kg, po after 4 hrs relative to pregabalin; format: functional, organism-based
Rattus norvegicus [16] = experiment: Analgesic activity in rat streptozocin-induced diabetic neuropathy model at 10 mg/kg, po after 4 hrs; format: functional, organism-based; parameters: dose 10 mg/kg

Row | Structure (SMILES) | IC50 (P2X purinoceptor 7 [1]) [nM] | AUC [2] [µM·h] | concentration at 6 h [3] [nM] | other results
1 | CCN1C(=O)c2nc(-c3ccc(-c4ccccc4)cc3)n(Cc3ccc(F)cc3)c2N2CC(C)(C)N=C12 | 276 | – | – | –
2 | CCN1C(=O)c2nc(-c3ccc(-c4cccc(OC(F)(F)F)c4)nc3)n(Cc3ccc(F)c(F)c3)c2N2CC(C)(C)N=C12 | 110 | – | – | –
3 | CCN1C(=O)c2nc(-c3ccc(-c4ccc(OC(F)(F)F)cc4)nc3)n(Cc3ccc(F)c(F)c3)c2N2CC(C)(C)N=C12 | 1940 | – | – | –
4 | CCN1C(=O)c2nc(-c3ccc(-c4ccccc4)cc3)n(Cc3cccc(F)c3F)c2N2C[C@@H](C(C)C)N=C12 | 870 | – | – | –
5 | CCN1C(=O)c2nc(-c3ccc(-c4ccccc4)cc3)n(Cc3ccc(F)cc3F)c2N2C[C@@H](C(C)C)N=C12 | 845 | – | – | –
6 | CCN1C(=O)c2nc(-c3ccc(-c4ccccc4)cc3)n(Cc3ccc(F)c(F)c3)c2N2CC3(CCCCC3)N=C12 | 388 | – | – | –
7 | CCN1C(=O)c2nc(-c3ccc(-c4ccccc4)cc3)n(Cc3ccc(F)cc3F)c2N2CC(C)(C)N=C12 | 700 | – | – | –
8 | CCN1C(=O)c2nc(-c3ccc(-c4ccc(C(F)(F)F)cc4)nc3)n(Cc3ccc(F)c(F)c3)c2N2CC(C)(C)N=C12 | 137 | 5.68 | 1570 | –
9 | CCN1C(=O)c2nc(-c3ccc(-c4ccccc4)cc3)n(Cc3cccc(F)c3)c2N2C[C@@H](C(C)C)N=C12 | 269 | – | – | –
10 | CCN1C(=O)c2nc(-c3ccc(-c4ccccc4)cc3)n(Cc3ccc(F)cc3)c2N2C[C@@H](C(C)C)N=C12 | 237 | – | – | –
11 | CCN1C(=O)c2nc(-c3ccc(-c4ccccc4)cc3)n(Cc3ccccc3F)c2N2C[C@@H](C(C)C)N=C12 | 937 | – | – | –
12 | CCN1C(=O)c2nc(-c3ccc(-c4ccccc4)cc3)n(Cc3ccc(F)c(F)c3)c2N2C[C@@H](C(C)C)N=C12 | 178 | 3.76 | 392 | –
13 | CCN1C(=O)c2nc(-c3ccc(-c4ccccc4)cc3)n(Cc3cc(F)ccc3F)c2N2C[C@@H](C(C)C)N=C12 | 1040 | – | – | –

The next lines start with results.

Row | IC50 (P2X purinoceptor 7 [1]) [nM] | AUC [2] [µM·h] | concentration at 6 h [3] [nM] | Structure (SMILES) | other results
14 | 55 | 7.54 | 1260 | CCN1C(=O)c2nc(-c3ccc(-c4cc(F)cc(F)c4)nc3)n(Cc3ccc(F)c(F)c3)c2N2CC(C)(C)N=C12 | –
15 | 91 | – | – | CCN1C(=O)c2nc(-c3ccc(-c4ccccc4)cc3)n(Cc3cc(F)cc(F)c3)c2N2CC(C)(C)N=C12 | –
16 | 107 | 1.11 | 93 | CCN1C(=O)c2nc(-c3ccc(-c4ccccc4)cc3)n(Cc3cc(F)cc(F)c3)c2N2C[C@@H](C(C)C)N=C12 | –
17 | 28 | 3.56 | 897 | CCN1C(=O)c2nc(-c3ccc(-c4cccc(F)c4)nc3)n(Cc3ccc(F)c(F)c3)c2N2CC(C)(C)N=C12 | –
18 | 39 | – | – | CCN1C(=O)c2nc(-c3ccc(-c4ccc(C)cc4)nc3)n(Cc3ccc(F)c(F)c3)c2N2CC(C)(C)N=C12 | –
19 | 85 | 6.86 | 1370 | CCN1C(=O)c2nc(-c3ccc(-c4ccccc4)cc3)n(Cc3ccc(F)c(F)c3)c2N2CC(C)(C)N=C12 | IC50 (P2X purinoceptor 7 [4]): 121 nM; Activity (Rattus norvegicus [5]): Active; Activity (Rattus norvegicus [6]): Active; Activity (Rattus norvegicus [7]): Active; inhibition [8]: > 80%; inhibition [9]: > 80%; inhibition [10]: > 80%; inhibition [11]: > 80%; inhibition [12]: 55%; Activity (Rattus norvegicus [13]): Active; Activity (Rattus norvegicus [14]): Active; Activity (Rattus norvegicus [15]): Active; Activity (Rattus norvegicus [16]): Active
20 | 50 | – | – | CCN1C(=O)c2nc(-c3ccc(-c4ccc(OC)cc4)nc3)n(Cc3ccc(F)c(F)c3)c2N2CC(C)(C)N=C12 | –
21 | 25 | 0.231 | – | CCN1C(=O)c2nc(-c3ccc(-c4cccc(C)c4)nc3)n(Cc3ccc(F)c(F)c3)c2N2CC(C)(C)N=C12 | –
22 | 104 | 1.84 | 395 | CCN1C(=O)c2nc(-c3ccc(-c4cccc(C(F)(F)F)c4)nc3)n(Cc3ccc(F)c(F)c3)c2N2CC(C)(C)N=C12 | –
23 | 108 | – | – | CCN1C(=O)c2nc(-c3ccc(-c4ccccc4)cc3)n(Cc3ccc(F)c(F)c3)c2N2CCC(C)(C)N=C12 | –
24 | 101 | 1.62 | 224 | CCN1C(=O)c2nc(-c3ccc(-c4ccccc4OC)nc3)n(Cc3ccc(F)c(F)c3)c2N2CC(C)(C)N=C12 | –
25 | 95 | 4.14 | 537 | CCN1C(=O)c2nc(-c3ccc(-c4ccc(F)cc4F)nc3)n(Cc3ccc(F)c(F)c3)c2N2CC(C)(C)N=C12 | –
26 | 24 | 13.7 | 2640 | CCN1C(=O)c2nc(-c3ccc(-c4ccccc4)nc3)n(Cc3ccc(F)c(F)c3)c2N2CC(C)(C)N=C12 | –
27 | 45 | 3.56 | 897 | CCN1C(=O)c2nc(-c3ccc(-c4ccc(F)cc4)nc3)n(Cc3ccc(F)c(F)c3)c2N2CC(C)(C)N=C12 | –
28 | 52 | 2.71 | 537 | CCN1C(=O)c2nc(-c3ccc(-c4ccccc4F)nc3)n(Cc3ccc(F)c(F)c3)c2N2CC(C)(C)N=C12 | –
